# According to the supplement of paper PMC11208160:
# Assay: recombinant UMI read abundance after kanamycin selection (control-corrected) (log10(CPM+1)); higher = more efficient recombination; extreme values may be limits of the assay; sequences stand for … in AGTGCAGAGAAAATCGGCCAGTTTTCTCTGCCTGCAGTCCGCATGCCGTGGGACCCCTTGGGTTCTAACCTGTTGCCTAGATTTATGCAGCGGACTGCCTTTCTCCCAAAGTGATAAACCGG…AGGTTGGTTTCACT; site = the 11-nt donor
# Method in brief: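 Under IPTG (0.07 mM) plus kanamycin, or without selection, Escherichia coli carrying a UMI-tagged donor and donor-binding-loop pair library and a target plasmid for the IS621 bridge recombinase were plated in two replicates. Recombinant UMIs were PCR-amplified across the donor–target junction and sequenced. Counts were converted to CPM, averaged over replicates, scaled by control-derived factors and reported as log10(CPM+1).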
# 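Also: IS621 bridge recombinase in Escherichia coli cells against a fixed T5 target plasmid.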
row,Sequence,recombinant UMI read abundance (log10)
1,GCGTGCCCATGGACCGGTTTTCCCGGTAATCCGTATTTGAT (site GCCTGCCCTAT),0.0179
2,GCGTGCCCATGGACCGGTTTTCCCGGTAATCCGTATTTGAT (site GCGTGCCCTAT),0.221
3,GCGTGCCCATGGACCGGTTTTCCCGGTAATCCGTATTTGAT (site GCTTGCCCTAT),0.0133
4,GCGTTCTCATGGACCGGTTTTCCCGGTAATCCGTATTTGAA (site GCGTTCTCTTT),2.47
5,GCTACCTCATGGACCGGTTTTCCCGGTAATCCGTATTTGGC (site GCTACCTCTGC),2.47
6,GCTACTGCATGGACCGGTTTTCCCGGTAATCCGTATTTGCA (site GCTACTGCTAG),0
7,GCTACTGCATGGACCGGTTTTCCCGGTAATCCGTATTTGCA (site GCTACTGCTCG),0.00835
8,GCTACTGCATGGACCGGTTTTCCCGGTAATCCGTATTTGCA (site GCTACTGCTGG),0
9,GCTACTGCATGGACCGGTTTTCCCGGTAATCCGTATTTGCA (site GCTACTGCTTG),2.78
10,GCTACTGCATGGACCGGTTTTCCCGGTAATCCGTATTTGCG (site GCTACTGCTAG),0.345
11,GCTACTGCATGGACCGGTTTTCCCGGTAATCCGTATTTGCG (site GCTACTGCTCG),1.27
12,GCTACTGCATGGACCGGTTTTCCCGGTAATCCGTATTTGCG (site GCTACTGCTGG),0
13,GCTACTGCATGGACCGGTTTTCCCGGTAATCCGTATTTGCG (site GCTACTGCTTG),1.35
14,GCTACTGCATGGACCGGTTTTCCCGGTAATCCGTATTTGTC (site GCTACTGCTGA),1.83
15,GCTACTGCATGGACCGGTTTTCCCGGTAATCCGTATTTGTC (site GCTACTGCTGC),0
16,GCTACTGCATGGACCGGTTTTCCCGGTAATCCGTATTTGTC (site GCTACTGCTGG),0.571
17,GCTACTGCATGGACCGGTTTTCCCGGTAATCCGTATTTGTC (site GCTACTGCTGT),0.512
18,GCTAGAACATGGACCGGTTTTCCCGGTAATCCGTATTTGAG (site ACTAGAACTCT),0.959
19,GCTAGAACATGGACCGGTTTTCCCGGTAATCCGTATTTGAG (site CCTAGAACTCT),0.439

row,Sequence,recombinant UMI read abundance (log10)
1,GCTAGAACATGGACCGGTTTTCCCGGTAATCCGTATTTGAG (site GCTAGAACTCT),1.83
2,GCTAGAACATGGACCGGTTTTCCCGGTAATCCGTATTTGAG (site TCTAGAACTCT),0.815
3,GCTAGGCCATGGACCGGTTTTCCCGGTAATCCGTATTTGAG (site GCTAGGCCTCT),0.0384
4,GCTATACCATGGACCGGTTTTCCCGGTAATCCGTATTTGTA (site GCTATACCTTA),0.0042
5,GCTATCTCATGGACCGGTTTTCCCGGTAATCCGTATTTGAA (site GCTATCTCTTT),1.86
6,GCTCCTGCATGGACCGGTTTTCCCGGTAATCCGTATTTGCC (site GCTACTGCTGG),0.902
7,GCTCCTGCATGGACCGGTTTTCCCGGTAATCCGTATTTGCC (site GCTCCTGCTGG),0.921
8,GCTCCTGCATGGACCGGTTTTCCCGGTAATCCGTATTTGCC (site GCTGCTGCTGG),0
9,GCTCCTGCATGGACCGGTTTTCCCGGTAATCCGTATTTGCC (site GCTTCTGCTGG),0
10,GCTGGCCCATGGACCGGTTTTCCCGGTAATCCGTATTTGAT (site GCTAGCCCTAT),0.0226
11,GCTGGCCCATGGACCGGTTTTCCCGGTAATCCGTATTTGAT (site GCTCGCCCTAT),0.00439
12,GCTGGCCCATGGACCGGTTTTCCCGGTAATCCGTATTTGAT (site GCTGGCCCTAT),0.00519
13,GCTGGCCCATGGACCGGTTTTCCCGGTAATCCGTATTTGAT (site GCTTGCCCTAT),0
14,GCTGGTCCATGGACCGGTTTTCCCGGTAATCCGTATTTGTA (site GCTGGTCCTTA),0.297
15,GCTGTCCCATGGACCGGTTTTCCCGGTAATCCGTATTTGGC (site GCTGTCCCTGC),0
16,GCTGTTCCATGGACCGGTTTTCCCGGTAATCCGTATTTGGT (site GATGTTCCTAC),0.0117
17,GCTGTTCCATGGACCGGTTTTCCCGGTAATCCGTATTTGGT (site GCTGTTCCTAC),0
18,GCTGTTCCATGGACCGGTTTTCCCGGTAATCCGTATTTGGT (site GGTGTTCCTAC),0.0107
19,GCTGTTCCATGGACCGGTTTTCCCGGTAATCCGTATTTGGT (site GTTGTTCCTAC),0

row,Sequence,recombinant UMI read abundance (log10)
1,GCTTGCCCATGGACCGGTTTTCCCGGTAATCCGTATTTGAT (site ACTTGCCCTAT),0
2,GCTTGCCCATGGACCGGTTTTCCCGGTAATCCGTATTTGAT (site CCTTGCCCTAT),0.0733
3,GCTTGCCCATGGACCGGTTTTCCCGGTAATCCGTATTTGAT (site GATTGCCCTAT),0.0145
4,GCTTGCCCATGGACCGGTTTTCCCGGTAATCCGTATTTGAT (site GCATGCCCTAT),0.0036
5,GCTTGCCCATGGACCGGTTTTCCCGGTAATCCGTATTTGAT (site GCCTGCCCTAT),0.0885
6,GCTTGCCCATGGACCGGTTTTCCCGGTAATCCGTATTTGAT (site GCGTGCCCTAT),0.0338
7,GCTTGCCCATGGACCGGTTTTCCCGGTAATCCGTATTTGAT (site GCTAGCCCTAT),0.00265
8,GCTTGCCCATGGACCGGTTTTCCCGGTAATCCGTATTTGAT (site GCTCGCCCTAT),0.249
9,GCTTGCCCATGGACCGGTTTTCCCGGTAATCCGTATTTGAT (site GCTGGCCCTAT),0.00346
10,GCTTGCCCATGGACCGGTTTTCCCGGTAATCCGTATTTGAT (site GCTTACCCTAT),0.00934
11,GCTTGCCCATGGACCGGTTTTCCCGGTAATCCGTATTTGAT (site GCTTCCCCTAT),0.0974
12,GCTTGCCCATGGACCGGTTTTCCCGGTAATCCGTATTTGAT (site GCTTGACCTAT),0.0101
13,GCTTGCCCATGGACCGGTTTTCCCGGTAATCCGTATTTGAT (site GCTTGCACTAT),0.00776
14,GCTTGCCCATGGACCGGTTTTCCCGGTAATCCGTATTTGAT (site GCTTGCCCTAA),0.00772
15,GCTTGCCCATGGACCGGTTTTCCCGGTAATCCGTATTTGAT (site GCTTGCCCTAC),0.00771
16,GCTTGCCCATGGACCGGTTTTCCCGGTAATCCGTATTTGAT (site GCTTGCCCTAG),0
17,GCTTGCCCATGGACCGGTTTTCCCGGTAATCCGTATTTGAT (site GCTTGCCCTAT),0.0141
18,GCTTGCCCATGGACCGGTTTTCCCGGTAATCCGTATTTGAT (site GCTTGCCCTCT),0.0236
19,GCTTGCCCATGGACCGGTTTTCCCGGTAATCCGTATTTGAT (site GCTTGCCCTGT),0
